From US6342503B1, “1N-alkyl-n-arylpyrimidinamines and derivatives thereof” (DuPont Pharmaceuticals Company, priority 1993, dated 2002) come the findings set out here.

Counter-ions that a name gives are not always drawn. Bounds are passed on as bounds.

In general, Ki refers to a dissociation constant, usually derived from enzyme kinetics or from competition with a known ligand. One may read the melting point as the temperature of the solid-liquid transition.

The first data set deals with T1, CRF receptor (Rattus norvegicus, UniProt P35353).
T1 construct: 100 μl of membrane suspension as prepared above to give a total reaction volume of 300 μl; from tissue; host or cells: rat cerebral cortex membrane homogenate
T1 sequence (P35353 24-415): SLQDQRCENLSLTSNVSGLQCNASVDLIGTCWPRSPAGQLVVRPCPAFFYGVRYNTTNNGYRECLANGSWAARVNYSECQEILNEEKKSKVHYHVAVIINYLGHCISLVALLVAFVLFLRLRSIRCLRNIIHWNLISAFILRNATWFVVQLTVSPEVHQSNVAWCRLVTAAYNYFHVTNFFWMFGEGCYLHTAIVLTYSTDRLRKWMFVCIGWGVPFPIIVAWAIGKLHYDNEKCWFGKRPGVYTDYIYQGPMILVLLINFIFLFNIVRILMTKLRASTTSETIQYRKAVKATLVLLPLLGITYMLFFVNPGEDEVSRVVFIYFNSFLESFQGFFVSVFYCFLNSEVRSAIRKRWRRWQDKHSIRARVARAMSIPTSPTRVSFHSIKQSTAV
Description: In vitro CRF receptor binding assay (competition with [125I] ovine CRF, rat cortex membranes). As to conditions: competition with [125I] ovine CRF, 2 h at 22° C.; Ki classes; read-out: Inhibition Ki. As for the experimental part:
In vitro Receptor Binding Assay
Tissue Preparation: Male Sprague Dawley rats (180-200 g) were sacrificed by decapitation and the cortex was dissected on ice, frozen whole in liquid nitrogen and stored at −70° C. until use. On the day of assay, frozen tissue was weighed and homogenized in 20 volumes of ice cold buffer containing 50 mM Tris, 10 mM MgCl2, 2 mM EGTA, pH 7.0 at 22° C. using a Polytron (Brinkmann Instruments, Westbury, N.Y.; setting 6) for 20 s. The homogenate was centrifuged at 48,000× g for 10 min at 4° C. The supernatant was discarded, and the pellet was re-homogenized in the same volume of buffer and centrifuged at 48,000× g for 10 min at 4° C. The resulting pellet was resuspended in the above buffer to a final concentration of 20-40 mg original wet weight/mL and used in the assays described below.
CRF Receptor Binding: Receptor binding assays were carried out essentially as described by E. B. De Souza, J. Neurosci. […]
All assays were carried out at equilibrium for 2 h at 22° C. as described by E. B. De Souza, J. Neurosci. […] The reaction was terminated by centrifugation of the tubes in a Beckman microfuge for 5 min at 12,000× g. Aliquots of the supernatant were collected to determine the “free” radioligand concentration. The remaining supernatant was aspirated and the pellets washed gently with ice-cold PBS plus 0.01% Triton X-100; centrifuged again and monitored for bound radioactivity as described above. […] This program has the distinct advantage of fitting the raw experimental data on an untransformed coordinate system where errors are most likely to be normally distributed and uncorrelated with the independent variable. […] The parameters for the affinity constants (KD) and receptor densities (Bmax) are also provided along with statistics on the general “fit” of the estimated parameters to the raw data.
Competition Curve Analysis
The resulting pellets were surface washed twice by centrifugation with 1 mL of ice-cold phosphate buffered saline and 0.01% Triton X-100; the supernatants discarded and the pellets monitored for radioactivity at approximately 80% efficiency. The level of non-specific binding was defined in the presence of […] unlabeled rat/humanCRF (r/hCRF). Data from competition curves were analyzed by the program LIGAND. […] Routinely, the data were analyzed using a one- and two-site model comparing the “goodness of fit” between the models in order to accurately determine the Ki. Statistical analyses provided by LIGAND allowed the determination of whether a single-site or multiple-site model should be used.
In Table 17; the Ki values were determined using the assay conditions described above.
Regarding `CCSc1cc(C(C)=NOC)ccc1N(CC)c1nc(C)cc(C)n1` [compound 176, N-(2-ethylthio-4-methoxyiminoethylphenyl)-N-ethyl-4,6-dimethyl-2-pyrimidinamine], the Ki is under 0.5 µM.

Still in this data set, the particulars now being: read-out: Inhibition Ki.
As to `Cc1cc(C)nc(N(C)c2ccc(C(C)C)cc2Br)n1` [compound 4, N-(2-bromo-4-(1-methylethyl)phenyl)-N-methyl-4,6-dimethyl-2-pymidinamine], the Ki was under 0.5 µM.
On the same count and under the same terms, then `Cc1cc(C)nc(N(CC2CC2)c2ccc(C(C)C)cc2Br)n1` [compound 33], with under 0.5 µM; and `CCN(c1nc(C)cc(OCc2ccccc2)n1)c1ccc(C(C)C)cc1Br` [compound 149], with under 0.5 µM.
Turning to `Cc1cc(-c2ccccc2)c2ccn(-c3ccc(C(C)C)cc3Br)c2n1` [Example 261], the inhibitory constant (Ki) was under 0.5 µM.
`CCN(c1nc(C)cc(COCc2cc(OC)c(OC)c(OC)c2)n1)c1ccc(C(C)C)cc1Br` [compound 212]: the inhibition constant (Ki) is under 0.5 µM.
For the molecule `CCN(c1nc(C)cc(COC)n1)c1ccc(C(C)C)cc1I` [compound 207], the Ki is under 0.5 µM.
Same read-out and setting: then `CCN(c1nc(C)cc(CN(C)Cc2ccco2)n1)c1ccc(C(C)C)cc1Br` [compound 276], with under 0.5 µM; and `CCN(c1nc(C)nc(C)n1)c1ccc(C(C)C)cc1Br` [compound 133], with 0.501 to 2 µM.
`CCN(c1nc(C)cc(C(=O)N2CCOCC2)n1)c1ccc(C(C)C)cc1Br` [compound 58, N-(2-bromo-4-(1-methylethyl)phenyl)-N-ethyl-4-methyl-6-(4-morpholinylcarbonyl)-2-pyrimidinamine]: the inhibitory constant (Ki) is under 0.5 µM.

Tested on in another data set: not given
Test: not given
Details: not given
`Cc1cc(C)nc(N2CCCSc3cc(C(C)C)ccc32)n1` (as salt: hydrochloride) [compound 173] registered a melting point of 157 to 159 °C.
Still for that read-out and setting: then `CCN(c1nc(C)cc(CN2CCN(c3ccccc3OC)CC2)n1)c1ccc(C(C)C)cc1Br` (as salt: HCl) [compound 275], with 102 to 104 °C; and `Cc1cc(C)nc(N(C)c2ccc(I)cc2)n1` (as salt: hydrochloride) [compound 52], with 175 to 177 °C; and `CCN(c1nc(C)cc(C)n1)c1ccc(C(C)C)cc1Br` (as salt: hydrochloride) [compound 21, N-(2-bromo-4-(1-methylethyl)phenyl)-N-ethyl-4,6dimethyl-2-pyrimidinamine], with 151 to 153 °C.
Same read-out and setting: then `CCN(c1nccc(C)n1)c1ccc(C(C)C)cc1Br` (as salt: hydrochloride) [compound 49, N-(2-Bromo-4-(1-methylethyl)phenyl)-N-ethyl-4-methyl-2-pymidinamine], with 145 to 147 °C; and `CCCCc1ccc(N(CC)c2nc(CC)cc(CC)n2)c(Br)c1` (as salt: hydrochloride) [compound 24], with 116 to 118 °C.
As for `COc1ccc(N(C)c2nc(C)cc(C)n2)c(OC)c1` (as salt: hydrochloride) [compound 2], the melting point fell in the range of 112 to 113 °C.
The molecule `CCN(c1nc(C)cc(C)n1)c1ccc(C(C)C)cc1[S+](C)[O-]` (centres unmarked) [compound 169, N-(2-methylsulfinyl-4-(1-methylethyl)phenyl)-N-ethyl-4,6-dimethyl-2-pyrimidinamine] registered a melting point of 144 to 146 °C.
In turn, `CCN(c1nc(C)cc(OC[C@@H]2CCCN2C)n1)c1ccc(C(C)C)cc1SC` (as salt: hydrochloride) [compound 177, N-(2-methylthio4-(1-methylethyl)phenyl)-N-ethyl-4(S)-(N-methyl-2′-pyrrolidinomethoxy)-6-methyl-2-pyrimidinamine] came in with a melting point of 101 to 103 °C.
On the same count and under the same terms, for `CCN(c1nc(C)nc(OCc2ccccc2)n1)c1ccc(C(C)C)cc1Br` (as salt: hydrochloride) [compound 242, N-[2-bromo-4(1-methylethyl)phenyl]-N-ethyl-4-methyl-6-benzyloxy-1,3,5 triazin-2-amine] the value was 89 to 90 °C.
On the same count and under the same terms, for `CCN(c1nc(C)cc(C(=O)c2c[nH]c3ccccc23)n1)c1ccc(C(C)C)cc1Br` (as salt: HCl) [compound 283] the value was 105 to 107 °C; for `CCc1ccc(N(CC)c2nc(C)cc(C)n2)c(SC)c1` (as salt: hydrochloride) [compound 182, N-(4-ethyl-2-methylthiophenyl)-N-ethyl-4,6-dimethyl-2-pyrimidinamine], 140 to 141 °C; for `CCN(c1nc(C)cc(CN2CCN(c3ncccn3)CC2)n1)c1ccc(C(C)C)cc1Br` (as salt: HCl) [compound 281], 125 to 127 °C.
`CCSc1cc(C(C)C)ccc1N(CC)c1nc(C)cc(C)n1` (as salt: hydrochloride) [compound 175, N-(2-ethylthio-4-(1-methylethyl)phenyl)-N-ethyl-4,6dimethyl-2-pyrimidinamine] displayed a melting point of 128 to 130 °C.
The same measure, in the same setting: for `CCCCc1ccc(N(CC)c2nc(C)cc(C)n2)c(Br)c1` (as salt: hydrochloride) [compound 19] the value was 124 to 126 °C; for `Cc1cc(C)nc(N(CC2CC2)c2ccc(C(C)C)cc2Br)n1` (as salt: hydrochloride) [compound 33], 146 to 148 °C.
Molecule `CCN(c1nc(C)cc(CN2CCN(c3ccccn3)CC2)n1)c1ccc(C(C)C)cc1Br` (as salt: HCl) [compound 280] displayed a melting point of 117 to 119 °C.
`CCN(c1cc(OC)nc(OC)n1)c1ccc(C(C)C)cc1Br` (as salt: hydrochloride) [compound 130]: the melting point lay within 104 to 106 °C.
As to `Cc1cc(Cl)c2c(C#N)cn(-c3ccc(C(C)C)cc3Br)c2n1` [Synth. Ex. 74, 1-(2-Bromo-4-isopropylphenyl)-4-chloro-3-cyano-6-methyl-7-azaindole], the melting point came to 123.3 °C.
Same read-out and setting: for `CCN(c1nc(C)nc(N2CCOCC2)n1)c1ccc(C(C)C)cc1Br` (as salt: hydrochloride) [compound 134, N-[2-bromo-4-(1-methylethyl)phenyl]-N-ethyl-4-methyl-6-(4-morpholinyl)-1,3,5-triazin-2-amine] the value was 59 to 63 °C; for `CCN(c1nc(C)cc(NN)n1)c1ccc(C(C)C)cc1Br` (as salt: hydrochloride) [compound 146], 117 to 121 °C; for `C=CCN(c1nc(C)cc(N2CCOCC2)n1)c1ccc(C(C)C)cc1Br` (as salt: hydrochloride) [compound 17], 208 to 211 °C.
On the same count and under the same terms, for `Cc1cc(C)nc(N(C)c2ccccc2I)n1` (as salt: hydrochloride) [compound 53] the value was 164 to 166 °C; for `CCN(c1nc(C)cc(C)n1)c1ccc(C(C)C)cc1SC` (as salt: hydrochloride) [compound 170, N-(2-methylthio-4-(1-methylethyl)phenyl)-N-ethyl-4,6dimethyl-2-pyrimidinamine], 141 to 142 °C.
Turning to `Cc1ccc(N(C)c2nc(C)cc(C)n2)c(Br)c1` (as salt: hydrochloride) [compound 1, N-(2-bromo-4-methylphenyl)-N-methyl-4,6-dimethyl-2-pymidinamine], the melting point lay in the range of 120 to 121 °C.
Same read-out and setting: for `CCN(c1nc(C)cc(OCCN(C)C)n1)c1ccc(C(C)C)cc1Br` (as salt: hydrochloride) [compound 161] the value was 143 to 146 °C; for `CCc1ccc(N(C)c2nc(C)cc(C)n2)c(Br)c1` (as salt: hydrochloride) [compound 9, N-(2-bromo-4-ethylphenyl)-N-methyl-4,6-dimethyl-2-pypimidinamine], 126 to 127 °C; for `Cc1cc(C)nc(N(C)c2ccc(C(C)(C)C)cc2Br)n1` (as salt: hydrochloride) [compound 11], 193 to 195 °C.
